Our source for the MIC50 and MIC90 values is ChEMBL document CHEMBL1275407, “Treatment of scedosporiosis with voriconazole: clinical experience with 107 patients” (2008).

The MIC50 is the lowest concentration that inhibits either 50% of growth or 50% of the strains tested, depending on the study. What is called MIC90 is the lowest concentration that inhibits either 90% of growth or 90% of the strains tested, depending on the study.

What all share (type): functional
The subject of experiment [1] is Scedosporium apiospermum. The experiment is described as follows: Antifungal activity against Scedosporium apiospermum isolated from compound treated scedosporiosis patient by broth microdilution method.
The test system of experiment [2] is Lomentospora prolificans. Nature of the experiment: Antifungal activity against Scedosporium prolificans isolated from compound treated scedosporiosis patient by broth microdilution method. Background: Dilution methods test growth across graded concentrations, often in twofold steps.
Experiment [3] relates to Scedosporium apiospermum. Nature of the experiment: Antifungal activity against Scedosporium apiospermum isolated from voriconazole treated scedosporiosis patient by broth microdilution method.
In experiment [4] the test system is Lomentospora prolificans. The experiment is described as follows: Antifungal activity against Scedosporium prolificans isolated from voriconazole treated scedosporiosis patient by broth microdilution method.

Each structure is given as a SMILES string. Converted amounts (≈) assume the structure as drawn.

In the experiment with Scedosporium apiospermum [1], `C[C@@H](c1ncncc1F)[C@](O)(Cn1cncn1)c1ccc(F)cc1F` [VORICONAZOLE] gave an MIC50 of 0.25 µg/mL (≈ 0.716 µM) and an MIC90 of 1 µg/mL (≈ 2.86 µM). In the experiment with Lomentospora prolificans [2], this molecule had an MIC50 of 4 µg/mL (≈ 11.5 µM) and an MIC90 of 8 µg/mL (≈ 22.9 µM).
In the experiment on Scedosporium apiospermum [3], `CCC(C)n1ncn(-c2ccc(N3CCN(c4ccc(OCC5COC(Cn6cncn6)(c6ccc(Cl)cc6Cl)O5)cc4)CC3)cc2)c1=O` (configuration not stated) [ITRACONAZOLE] gave an MIC50 of 0.5 µg/mL (≈ 0.709 µM) and an MIC90 of 2 µg/mL (≈ 2.83 µM). Also, in the experiment with Lomentospora prolificans [4], the MIC50 was 16 µg/mL (≈ 22.7 µM) and the MIC90 stood at 16 µg/mL (≈ 22.7 µM).
For the molecule `C[C@@H]1[C@H](O)[C@@H](C)/C=C/C=C/C=C/C=C/C=C/C=C/C=C/[C@H](O[C@@H]2O[C@H](C)[C@@H](O)[C@H](N)[C@@H]2O)C[C@@H]2O[C@](O)(C[C@@H](O)C[C@@H](O)[C@H](O)CC[C@@H](O)C[C@@H](O)CC(=O)O[C@H]1C)C[C@H](O)[C@H]2C(=O)O` [AMPHOTERICIN B], the MIC50 was found to be 4 µg/mL (≈ 4.33 µM) with Scedosporium apiospermum [3] and 8 µg/mL (≈ 8.66 µM) against Lomentospora prolificans [4]. The MIC90 against Scedosporium apiospermum [3] was above 8 µg/mL; in the experiment on Lomentospora prolificans [4] it was 16 µg/mL (≈ 17.3 µM).
